Reference: ChEMBL document CHEMBL1139750, “Arylsulfonamides: a study of the relationship between activity and conformational preferences for a series of factor Xa inhibitors” (Bioorg Med Chem Lett, 2006)

Target: Coagulation factor X (Homo sapiens, UniProt P00742)
Experiment: Binding affinity at factor 10a

Coagulation factor X, sequence (P00742 41-179 limits assumed): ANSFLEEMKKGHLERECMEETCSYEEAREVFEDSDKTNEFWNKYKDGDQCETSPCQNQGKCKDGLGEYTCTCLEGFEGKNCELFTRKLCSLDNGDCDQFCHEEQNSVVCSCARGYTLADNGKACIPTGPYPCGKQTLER
Coagulation factor X, sequence (P00742 235-488 limits assumed): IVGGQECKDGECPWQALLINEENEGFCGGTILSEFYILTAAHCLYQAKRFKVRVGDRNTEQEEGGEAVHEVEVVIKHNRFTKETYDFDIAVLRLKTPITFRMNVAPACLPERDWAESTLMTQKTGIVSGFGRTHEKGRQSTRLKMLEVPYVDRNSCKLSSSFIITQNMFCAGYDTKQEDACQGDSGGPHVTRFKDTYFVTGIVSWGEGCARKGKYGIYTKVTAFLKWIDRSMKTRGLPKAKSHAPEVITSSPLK

Row | Structure (SMILES) | Ki [nM]
1 | C[C@@H](C(=O)N1CCOCC1)N1CC[C@H](NS(=O)(=O)c2cc3cc(Cl)ccc3[nH]2)C1=O | 90
2 | C[C@@H](C(=O)N1CCOCC1)N1CC[C@H](NS(=O)(=O)c2nc3cc(Cl)ccc3s2)C1=O | 112
3 | C[C@@H](C(=O)N1CCOCC1)N1CC[C@H](NS(=O)(=O)c2cc3cc(Cl)ccc3o2)C1=O | 782

The next lines start with the values.

Row | Ki [nM] | Structure (SMILES)
4 | 285 | C[C@@H](C(=O)N1CCOCC1)N1CC[C@H](NS(=O)(=O)c2cc3ccc(Cl)cc3o2)C1=O
5 | 15 | C[C@@H](C(=O)N1CCOCC1)N1CC[C@H](NS(=O)(=O)c2cc3ccc(Cl)cc3s2)C1=O
6 | 47 | C[C@@H](C(=O)N1CCOCC1)N1CC[C@H](NS(=O)(=O)c2cc3cc(Cl)ccc3s2)C1=O
7 | 4160 | C[C@@H](C(=O)N1CCOCC1)N1CC[C@H](NS(=O)(=O)c2nc3ccc(Cl)cc3s2)C1=O
8 | 170 | C[C@@H](C(=O)N1CCOCC1)N1CC[C@H](NS(=O)(=O)c2cc3ccc(Cl)cc3[nH]2)C1=O
